PubChem BioAssay (NCI)
Values joined by “and” are separate entries in the source; they are usually repeats but may differ in a detail not shown here. Equal values may be shown once.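 Interpolation was linear, between the two tested concentrations surrounding the appropriate level; five concentrations were tested over 48 hours in 96-well plates. GI50 is the concentration that inhibits growth by half. The concentration for full growth arrest is given as TGI.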

How the values were obtained:
Experiment in all cases: NCI-60 cell line screen, 48 h
[1] = tested on: A498 renal
[2] = tested on: BT-549 breast
[3] = tested on: DU-145 prostate
[4] = tested on: EKVX NSCLC
[5] = tested on: MDA-MB-231 breast
[6] = tested on: NCI-H460 lung
[7] = tested on: RXF 393 renal
[8] = tested on: SR leukemia
[9] = tested on: UACC-257 melanoma
[10] = tested on: UO-31 renal

| Compound | GI50 [1] | TGI [1] | GI50 [2] | TGI [2] | GI50 [3] | TGI [3] | GI50 [4] | TGI [4] | GI50 [5] | TGI [5] | GI50 [6] | TGI [6] | GI50 [7] | TGI [7] | GI50 [8] | TGI [8] | GI50 [9] | TGI [9] | GI50 [10] | TGI [10] |
| --- | --- | --- | --- | --- | --- | --- | --- | --- | --- | --- | --- | --- | --- | --- | --- | --- | --- | --- | --- | --- |
| O=C(c1ccco1)c1c(C(F)(F)F)nc2ccc(C(F)(F)F)cc2[n+]1[O-] | 42.4 µM | > 79.7 µM | 24.1 µM | 59.8 µM | 27.3 µM | > 75.8 µM | 19.9 µM | > 69.6 µM | 23.7 µM | 65.4 µM | > 63.2 µM | > 100 µM | 26.5 µM | 62.2 µM | > 91.7 µM | > 100 µM | > 52.6 µM | > 85.9 µM | 38.7 µM | > 100 µM |
| Nc1ccccc1NC(=O)c1ccc(CN2CCC/C(=C\c3ccccn3)C2=O)cc1 | 1.09 µM | 3.47 µM | 3.2 µM | > 100 µM | 3.15 µM | > 100 µM | 3.75 µM | > 100 µM | 4.04 µM | > 100 µM | 1.65 µM | > 100 µM | 0.755 µM | 3.48 µM | 0.47 µM | > 100 µM | 1.15 µM | 14.8 µM | 1.24 µM | 15.9 µM |
| C[C@]12CC[C@H]3[C@@H](CCC4=CC(=O)CC[C@@]43C)[C@@H]1CC[C@@H]2C(=O)COS(=O)(=O)c1ccc(Br)cc1 |  | 37.2 µM |  | 50.5 µM |  | 34.4 µM |  | 21.3 µM |  | 17.7 µM |  | 22.2 µM |  | > 50.8 µM |  | 3.12 µM |  | 31.9 µM |  | 3.5 µM |
| NC(=S)N/N=C/c1ccc(N)cn1 |  | > 10 µM |  | > 10 µM |  | 7.76 µM |  | > 10 µM |  | > 10 µM |  | > 10 µM |  | > 10 µM |  | > 10 µM |  | > 10 µM |  | 6.97 µM |
| CO[C@]12C=C/C(=C(/C(=O)OCc3cccnc3)C(=O)CCCCCCCC[C@@]3(OC)C=C/C(=C(/C(=O)OCc4cccnc4)C(=O)CCCCCCCC1)O3)O2 | 2.04 µM | 6.57 µM | 1.51 µM | 4.29 µM | 1.76 µM | 12.7 µM | 1.97 µM | > 50 µM | 2.25 µM | > 50 µM | 1.27 µM | 3.16 µM | 0.915 µM | 1.7 µM | 1.12 µM | > 50 µM | 2.01 µM | 20.1 µM | 1.21 µM | 4.34 µM |
| COc1cc2oc(-c3ccc(O)cc3O)c(CC=C(C)C)c(=O)c2c(O)c1/C=C/C(C)C |  | 5.12 µM |  | 11.4 µM |  | 11 µM |  | 15.3 µM |  | 6.17 µM |  | 14.5 µM |  | 4.61 µM |  | 4.44 µM |  | 17.5 µM |  | 8.08 µM |
| NC1CCC(Nc2nc(NCc3cc(Cl)ccc3O)c3ncn(C4CCCC4)c3n2)CC1 (stereo not given) | 0.211 µM | 0.484 µM | 0.262 µM | 0.877 µM | 0.207 µM | 1.02 µM | 0.262 µM | 0.928 µM | 0.186 µM | 0.759 µM | 0.125 µM | 0.958 µM | 0.12 µM | 0.277 µM | 0.0422 µM | 0.237 µM | 0.18 µM | 0.387 µM | 0.227 µM | 0.599 µM |
| C/C(=N\NC(=S)N1CCN(C2CCCCCC2)CC1)c1ccccn1 |  | 3.76 µM |  | 2.78 µM |  | 2.44 µM |  | 2.86 µM |  | 2.85 µM |  | 1.45 µM | 2.45 µM | 2.5 µM |  | 1.06 µM | < 0.001 µM | 1.21 µM | 1.35 µM | 3.75 µM and 1.5 µM |
| CNc1cc2nc3cc(NC)c(C)cc3cc2cc1C | 1.18 µM | 3.9 µM | 3.48 µM | 14.3 µM | 0.861 µM | 11.5 µM | 1.04 µM | 8.48 µM | 1.08 µM | 2.88 µM | 0.41 µM | 1.66 µM | 1.09 µM | 2.37 µM | 0.53 µM | > 100 µM | 6.83 µM | 32.3 µM | 0.365 µM | 13.3 µM |
| CC1=C(C(=O)Nc2ccc3[nH]ncc3c2)C(c2ccc(Cl)c(Cl)c2)CC(=O)N1 (stereo not given) | 4.14 µM | > 25 µM | 4.99 µM | > 25 µM | > 25 µM | > 25 µM | > 14.6 µM | > 25 µM | 15.9 µM | > 25 µM | > 25 µM | > 25 µM | 8.2 µM | > 25 µM | > 25 µM | > 25 µM | > 25 µM | > 25 µM | 3.22 µM | > 25 µM |
| C=C1COC(O)(C2OCOC(C3CC(=O)NC(=O)C3)C2O)C1C (stereo not given) |  | 0.0052 µM and 0.00554 µM | 0.0187 µM | 0.0739 µM | 0.0125 µM | 0.0616 µM | 0.00507 µM | 0.04 µM and 0.266 µM |  | 0.0328 µM | 0.0107 µM | 0.18 µM and 0.172 µM | 0.00134 µM | 0.00759 µM and 0.0177 µM and 0.0104 µM |  | 0.00841 µM | 0.004 µM and 0.0126 µM | 0.0278 µM and 0.0453 µM | 0.00204 µM | 0.0278 µM and 0.0215 µM |
| c1ccc(CN2CCC3(CC2)SSC2(CCN(Cc4ccccc4)CC2)SS3)cc1 |  | > 100 µM |  | > 100 µM |  | > 100 µM |  | 62 µM |  | > 100 µM |  | > 100 µM |  | > 100 µM |  | > 100 µM |  | > 100 µM |  | > 100 µM |
| C=C1CCC2C3(C)COC(c4c(OC)cccc4OC)OC3CCC2(C)C1C/C=C1/C(=O)OCC1O (stereo not given) | 15 µM | 29.6 µM | 2.25 µM | 5.64 µM | 2.96 µM | 7.87 µM | 8.47 µM | 27.3 µM | 7.57 µM | 26.4 µM | 4.71 µM | 19.5 µM | 1.92 µM | 3.55 µM | 1.62 µM | 4.99 µM | 13.5 µM | 31 µM | 2.01 µM | 4.33 µM |
| O=c1c2cccc(F)c2sc2c(N3CCNCC3)nc3ccccc3c12 | 1.92 µM | 8.51 µM | 1.58 µM | 3.06 µM | 1.4 µM | 2.76 µM | 1.59 µM | 2.99 µM | 1.61 µM | 3.1 µM | 1.02 µM | 2.34 µM | 1.31 µM | 2.62 µM | 1.08 µM | 3.35 µM | 1.93 µM | 3.94 µM | 0.597 µM | 2.04 µM |
| O=c1c2c(c3ccccc3n1-c1ccccc1)NC(=S)NC2c1ccc(Cl)cc1 (stereo not given) | 2.92 µM | 12.5 µM | 3.73 µM | 26 µM | 3 µM | 28.5 µM | 2.91 µM | 94.4 µM | 3.67 µM | 37.6 µM | 1.16 µM | 6.47 µM | 5.34 µM | 25.5 µM | 4.76 µM | > 100 µM | 5.9 µM | > 100 µM | 3.22 µM | 42.7 µM |
